Measurements reported in patent publication US11352350B2, “IRAK degraders and uses thereof” (Kymera Therapeutics, Inc., priority 2018, dated 2022).
pIC50: −log10 of the molar value. Where two headings read alike, the source gives them in different places.

Assays:
[1] = target: IRAK4 (Homo sapiens (Human), UniProt Q9NWZ3); assay: IRAK4 MSD degradation in OCI-LY10; assay type: cell-based
How it was run: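 Remaining IRAK4 quantified by electrochemiluminescent MSD sandwich assay with two anti-IRAK4 antibodies. Compounds were dosed as 8 concentrations in 1:3 steps from a 1 to 10 μM final top on OCI-LY10 cells, incubated 4 to 24 h at 37° C. under 5% CO2. DC50 fitted with a three-parameter logistic curve.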

[2] = tested on: OCI-LY10; assay: CTG Cell Viability Assay - OCI-LY10; assay type: cell-based, human; conditions: Homo sapiens, OCI-LY10, 4 days, read-out: CTG Cell Viability Assay - OCI-LY10: Average external-IC50
How it was run: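 Viability read by CellTiter-Glo luminescence after 4 days at 37° C under 5% CO2 with compound (top 10 μM final, 1:3 steps, 9 doses, DMSO 0.2%). Three-parameter logistic fit gave IC50.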

[3] = OCI-LY10, 4 hrs, MSD, read-out: IRAK4 MSD degradation in OCI-LY10 at 4 hrs: Average external-Abs DC50
[4] = OCI-LY10, 24 hrs, MSD, read-out: IRAK4 MSD degradation in OCI-LY10 at 24 hrs: Average external-Abs DC50

Sequence of IRAK4 (Q9NWZ3 whole entry): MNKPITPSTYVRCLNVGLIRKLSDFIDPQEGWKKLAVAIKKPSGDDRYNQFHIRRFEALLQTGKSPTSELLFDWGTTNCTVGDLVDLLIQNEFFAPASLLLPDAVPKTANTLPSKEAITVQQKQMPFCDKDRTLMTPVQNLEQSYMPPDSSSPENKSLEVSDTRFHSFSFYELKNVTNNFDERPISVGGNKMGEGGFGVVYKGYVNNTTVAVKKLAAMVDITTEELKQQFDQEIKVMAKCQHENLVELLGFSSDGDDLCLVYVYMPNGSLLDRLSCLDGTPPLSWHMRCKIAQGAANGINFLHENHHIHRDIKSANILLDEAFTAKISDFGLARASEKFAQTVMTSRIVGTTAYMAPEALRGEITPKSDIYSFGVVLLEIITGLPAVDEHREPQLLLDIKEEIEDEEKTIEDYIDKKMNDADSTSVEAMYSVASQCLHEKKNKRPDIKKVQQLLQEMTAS

SMILES | DC50 [1, 3] [nM] | pIC50 ([2]; OCI-Ly10, 96 h) | DC50 [1, 4] [nM] | pIC50 ([2]; 96 h) | DC50 ([1]; OCI-LY10, 4 hrs, read-out: IRAK4 MSD degradation in OCI-LY10 at 4 hrs: DC50) [nM] | DC50 ([1]; OCI-LY10, 24 hrs, read-out: IRAK4 MSD degradation in OCI-LY10 at 24 hrs: DC50) [nM]
O=C1CCC(N2C(=O)c3cccc(N4CCC(CCCN5CCC(n6cc(NC(=O)c7cnn8ccc(N9CCOCC9)nc78)c(C(F)F)n6)CC5)CC4)c3C2=O)C(=O)N1 (stereo not shown) [I-228] | > 1000 | < 6.00 | – | – | – | –
CC[C@@H]1[C@H](F)C(=O)N[C@@H]1COc1ncc(C#C[C@H]2CC[C@H](CN3CCO[C@@H](COCCCNc4cccc5c4C(=O)N(C4CCC(=O)NC4=O)C5=O)C3)CC2)c2cc(C(N)=O)c(OC)cc12 (stereo partly shown) [I-342] | 100 to 1000 | 7.00 to 7.30 | – | – | – | –
Cc1c[nH]c2ncnc(N[C@H]3CC[C@H](N4CCN(C(=O)CCOCCCc5ccc6c(c5)n(C)c(=O)n6C5CCC(=O)NC5=O)CC4)CC3)c12 (stereo partly shown) [I-24] | > 1000 | < 6.00 | > 1000 | – | – | –
CN(C[C@H]1CC[C@H](n2cc(NC(=O)c3cnn4ccc(N5CCOCC5)nc34)c(C(F)F)n2)CC1)C1CCC(N(C)c2cccc3c2C(=O)N(C2CCC(=O)NC2=O)C3=O)CC1 (stereo partly shown) [I-222] | 10 to 100 | 6.30 to 7.00 | – | – | – | –
CN(C[C@H]1CC[C@H](n2cc(NC(=O)c3coc(-c4ccnc(NCC5CC5)c4)n3)c(C(F)F)n2)CC1)C1CCN(Cc2cccc3c2n(C)c(=O)n3[C@@H]2CCC(=O)NC2=O)CC1 [I-309, 2-(2-((cyclopropylmethyl)amino)pyridin-4-yl)-N-(3-(difluoromethyl)-1-((1R,4r)-4-(((1-((1-((R)-2,6-dioxopiperidin-3-yl)-3-methyl-2-oxo-2,3-dihydro-1H-benzo [d]imidazol-4-yl)methyl)piperidin-4-yl)(methyl)amino)methyl)cyclohexyl)-1H-pyrazol-4-yl)oxazole-4-carboxamide] | 10 to 100 | > 7.30 | – | – | – | –
Cn1c(=O)n(C2CCC(=O)NC2=O)c2cccc(CCCOC3CCN(C(=O)[C@H]4CC[C@H](n5cc(NC(=O)c6cnn7ccc(N8CCNCC8)nc67)c(C(F)F)n5)CC4)CC3)c21 (stereo partly shown) [I-136] | < 10 | < 6.00 | – | – | – | –
CN1C(=O)C(C2CCC(=O)NC2=O)c2cccc(CCCOC3CCN(C[C@H]4CC[C@H](n5cc(NC(=O)c6cnn7ccc(N8CC[C@H](O)C8)nc67)c(C(F)F)n5)CC4)CC3)c21 (stereo partly shown) [I-282] | < 10 | < 6.00 | – | – | – | –
O=C1CCC(N2Cc3c(NCCOCC4CCN(C[C@H]5CC[C@H](n6cc(NC(=O)c7cnn8ccc(N9C[C@H]%10C[C@@H]9CO%10)nc78)c(C(F)F)n6)CC5)CC4)cccc3C2=O)C(=O)N1 (stereo partly shown) [I-374] | > 1000 | < 6.00 | 10 to 100 | – | – | –
CN(CCN1CCO[C@@H](CCNc2cccc3c2C(=O)N(C2CCC(=O)NC2=O)C3=O)C1)C[C@H]1CC[C@H](n2cc(NC(=O)c3cnn4ccc(N5C[C@H]6C[C@@H]5CO6)nc34)c(C(F)F)n2)CC1 (stereo partly shown) [I-337] | 100 to 1000 | 7.00 to 7.30 | 10 to 100 | – | – | –
O=C1CCC(N2Cc3c(OCc4ccc(CN5CCN(C[C@H]6CC[C@H](n7cc(NC(=O)c8cnn9ccc(N%10CCOCC%10)nc89)c(C(F)F)n7)CC6)CC5)cc4)cccc3C2=O)C(=O)N1 (stereo partly shown) [I-377] | > 1000 | > 7.30 | < 10 | – | – | –
CC[C@H]1C(COc2ncc(C#C[C@H]3CC[C@H](CN(C)Cc4ccc(CCNc5cccc6c5C(=O)N(C5CCC(=O)NC5=O)C6=O)cc4)CC3)c3cc(C(N)=O)c(OC)cc23)NC(=O)[C@H]1F (stereo partly shown) [I-329] | 100 to 1000 | < 6.00 | – | – | – | –
Cn1c(=O)n(C2CCC(=O)NC2=O)c2cccc(CN3CCC(CCN4CC(n5cc(NC(=O)c6coc(-c7ccnc(NCC8CC8)c7)n6)c(C(F)F)n5)C4)CC3)c21 (stereo not shown) [I-263] | 10 to 100 | > 7.30 | – | – | – | –
Cn1c(=O)n(C2CCC(=O)NC2=O)c2cccc(CCCOC3CCN(C[C@H]4CC[C@H](n5cc(NC(=O)c6cnn7ccc(N8C(=O)N[C@@H]9[C@H]8CCCC9(F)F)nc67)c(C(F)F)n5)CC4)CC3)c21 (stereo partly shown) [I-291] | 10 to 100 | > 7.30 | 10 to 100 | – | – | –
Cn1c(=O)n(C2CCC(=O)NC2=O)c2ccc(CN3CCC(CN4CCC(n5cc(NC(=O)c6coc(-c7ccnc(NCC8CC8)c7)n6)c(C(F)F)n5)CC4)CC3)cc21 (stereo not shown) [I-182] | 100 to 1000 | < 6.00 | – | – | – | –
O=C1CCC(N2C(=O)c3cccc(CCCOC4CCN(C[C@H]5CC[C@H](n6cc(NC(=O)c7coc(-c8ccnc(NCC9CC9)c8)n7)c(C(F)F)n6)CC5)CC4)c3C2=O)C(=O)N1 (stereo partly shown) [I-171] | 10 to 100 | 6.30 to 7.00 | – | – | – | –
CC[C@@H]1[C@H](F)C(=O)N[C@@H]1COc1ncc(C#CC2CCN(CCCOCCCc3cccc4c3n(C)c(=O)n4C3CCC(=O)NC3=O)CC2)c2cc(C(N)=O)c(OC)cc12 (stereo partly shown) [I-204] | 100 to 1000 | < 6.00 | 10 to 100 | – | – | –
CN[C@@H](C)C(=O)N[C@H](C(=O)N1Cc2cc(OCCOCCOCCOCCNC[C@H]3CC[C@H](n4cc(NC(=O)c5coc(-c6ccnc(NCC7CC7)c6)n5)c(C(F)F)n4)CC3)ccc2C[C@H]1C(=O)N[C@@H]1CCCc2ccccc21)C(C)(C)C [I-390] | > 1000 | – | – | < 6.00 | – | –
Cc1ccc(-n2nc(C3CCN(CCCCCOCCCc4cccc5c4n(C)c(=O)n5C4CCC(=O)NC4=O)CC3)cc2NC(=O)c2cnn3cccnc23)nc1 (stereo not shown) [I-272] | > 1000 | < 6.00 | > 1000 | – | – | –

SMILES | DC50 [1, 3] [nM] | pIC50 ([2]; OCI-Ly10, 96 h) | DC50 [1, 4] [nM] | pIC50 ([2]; 96 h) | DC50 ([1]; OCI-LY10, 4 hrs, read-out: IRAK4 MSD degradation in OCI-LY10 at 4 hrs: DC50) [nM] | DC50 ([1]; OCI-LY10, 24 hrs, read-out: IRAK4 MSD degradation in OCI-LY10 at 24 hrs: DC50) [nM]
CC(C)(O)c1nn([C@H]2CC[C@H](CN3CCC(OCCNc4cccc5c4C(=O)N(C4CCC(=O)NC4=O)C5=O)CC3)CC2)cc1NC(=O)c1cnn2ccc(N3CCOCC3)nc12 (stereo partly shown) [I-217] | 100 to 1000 | 7.00 to 7.30 | > 1000 | – | – | –
Cn1c(=O)n(C2CCC(=O)NC2=O)c2cccc(CCCOCCCOC3CCN(C4CCC(Nc5ncnc6ccc(C#N)cc56)CC4)CC3)c21 (stereo not shown) [I-271] | > 1000 | < 6.00 | > 1000 | – | – | –
Cn1c(=O)n(C2CCC(=O)NC2=O)c2cccc(CCN3CC4(CCN(C[C@H]5CC[C@H](n6cc(NC(=O)c7cnn8ccc(N9CCOCC9)nc78)c(C(F)F)n6)CC5)CC4)C3)c21 (stereo partly shown) [I-183] | < 10 | > 7.30 | < 10 | – | – | –
Cn1c(=O)n(C2CCC(=O)NC2=O)c2ccc(CCCOCC3CCN(C[C@H]4CC[C@H](n5cc(NC(=O)c6cnn7ccc(N8CCNCC8)nc67)c(C(F)F)n5)CC4)CC3)cc21 (stereo partly shown) [I-163] | < 10 | < 6.00 | – | – | – | –
O=C1CCC(N2C(=O)c3cccc(N[C@H]4C[C@H](OC5CCN(C[C@H]6CC[C@H](n7cc(NC(=O)c8cnn9ccc(N%10CCOCC%10)nc89)c(C(F)F)n7)CC6)CC5)C4)c3C2=O)C(=O)N1 (stereo partly shown) [I-506] | – | 6.00 to 6.30 | – | – | 10 to 100 | < 10
CC[C@@H]1CC(=O)N[C@@H]1COc1ncc(C#CC2CCN(CCCOCCCc3cccc4c3n(C)c(=O)n4C3CCC(=O)NC3=O)CC2)c2cc(C(N)=O)c(OC)cc12 (stereo partly shown) [I-203] | > 1000 | < 6.00 | 100 to 1000 | – | – | –
CC[C@@H]1CC(=O)N[C@@H]1COc1ncc(C#C[C@H]2CC[C@H](CN(C)CCCOCCCc3cccc4c3n(C)c(=O)n4C3CCC(=O)NC3=O)CC2)c2cc(C(N)=O)c(OC)cc12 (stereo partly shown) [I-219] | 10 to 100 | < 6.00 | 10 to 100 | – | – | –
C[C@@H]1CN(c2ccn3ncc(C(=O)Nc4cn([C@H]5CC[C@H](CN6CCC(OCCCc7cccc8c7n(C)c(=O)n8C7CCC(=O)NC7=O)CC6)CC5)nc4C(F)F)c3n2)C[C@@H](C)O1 (stereo partly shown) [I-276] | < 10 | < 6.00 | – | – | – | –
O=C1CCC(N2C(=O)c3cccc(CCCOC4CCN(C[C@H]5CC[C@H](n6cc(NC(=O)c7cnn8ccc(N9CCOCC9)nc78)c(C(F)F)n6)CC5)CC4)c3C2=O)C(=O)N1 (stereo partly shown) [I-207] | 10 to 100 | < 6.00 | – | – | – | –
O=C1CCC(n2c(=O)oc3c(CCCOC4CCN(C[C@H]5CC[C@H](n6cc(NC(=O)c7cnn8ccc(N9CCNCC9)nc78)c(C(F)F)n6)CC5)CC4)cccc32)C(=O)N1 (stereo partly shown) [I-165] | 10 to 100 | 6.00 to 6.30 | – | – | – | –
CN1C(=O)C(C2CCC(=O)NC2=O)c2cccc(CCCOC3CCN(C[C@H]4CC[C@H](n5cc(NC(=O)c6cnn7ccc(N8CC(O)C8)nc67)c(C(F)F)n5)CC4)CC3)c21 (stereo partly shown) [I-284] | < 10 | < 6.00 | – | – | – | –
CC[C@H]1C(COc2ncc(C#C[C@H]3CC[C@H](CN4CCC(OCCCc5cccc6c5c5cccnc5n6C5CCC(=O)NC5=O)CC4)CC3)c3cc(C(N)=O)c(OC)cc23)NC(=O)[C@H]1F (stereo partly shown) [I-205] | 100 to 1000 | < 6.00 | 10 to 100 | – | – | –
CN(CCCOCCCNC(=O)c1ccc(CNCc2ccc(-c3ccc4c(cnn4CC4CC4)c3)cc2)cc1)C(=O)[C@H]1CC[C@H](n2cc(NC(=O)c3coc(-c4ccnc(NCC5CC5)c4)n3)c(C(F)F)n2)CC1 [I-132] | > 1000 | < 6.00 | > 1000 | – | – | –
CN(C[C@H]1CC[C@H](n2cc(NC(=O)c3cnn4ccc(N5CCOCC5)nc34)c(C(F)F)n2)CC1)[C@H]1CC[C@@H](Nc2cccc3c2C(=O)N(C2CCC(=O)NC2=O)C3=O)CC1 (stereo partly shown) [I-350] | 100 to 1000 | < 6.00 | 10 to 100 | – | – | –
O=C1CCC(N2C(=O)c3cccc(NCCCOC4CCN(Cc5ccc(-n6cc(NC(=O)c7cnn8ccc(N9CCOCC9)nc78)c(C(F)F)n6)cc5)CC4)c3C2=O)C(=O)N1 (stereo not shown) [I-403] | > 1000 | 7.00 to 7.30 | 10 to 100 | – | – | –
Cn1c(=O)n(C2CCC(=O)NC2=O)c2ccc(CCCCOCCCCNCC(=O)N3CCN([C@H]4CC[C@H](Nc5ncnc6[nH]cc(C7CCOCC7)c56)CC4)CC3)cc21 (stereo partly shown) [I-23] | 10 to 100 | 7.00 to 7.30 | < 10 | – | – | –
Cn1c(=O)n(C2CCC(=O)NC2=O)c2cccc(CCCO[C@H]3CC[C@H](CN4CCC(n5cc(NC(=O)c6cnn7ccc(N8CCOCC8)nc67)c(C(F)F)n5)CC4)CC3)c21 (stereo partly shown) [I-200] | < 10 | 7.00 to 7.30 | – | – | – | –
